“And” between values parts separate entries of the source, which are not always exact repeats. Identical values can stand only once.
Assays:
[1] = tested on: BT-20 cells; assay: MTT cytotoxicity assay, BT-20; assay type: cell-based, human
Protocol: (§1) The effects of the tested compounds 1–6 on HF-P4, U-118 MG, H1299, BT-20, and Caov-3 cell lines were evaluated by the MTT assay during 48 h treatment (Table 2 and Tables S2–S31). In all tested compounds, we recognized a difference in cytotoxicity between healthy cells (HF-P4) and cancer cell lines (BT-20, Caov-3, and H-1299). […] In the case of ovarian cancer, the authors discovered oncogenic and poor prognosis roles of TET1 in epithelial ovarian carcinoma (EOC). TET1 is believed to demethylate the epigenome and activate numerous oncogenic pathways in EOC. The aforementioned study presents a new mechanism where TET1 contributes to tumor development through collaboration with CK2α [21]. The overexpression of the TET1 protein was also found in triple negative breast cancer and was associated with an activation of PI3K/mTOR pathway and decreased overall survival.
The human mammary gland/breast cell line (BT-20), purchased from ATCC (BT-20 (ATCC® HTB-19™), Manassas, VA, USA), was used for the cytotoxicity assay (MTT), and BT-20 cells were cultivated under standard conditions in Eagle’s minimum essential medium (ATCC, Manassas, VA, USA) supplemented with 10% FBS and streptomycin (100 μg/mL) at 37 °C at a 5% CO2 atmosphere.
(§2) For the cytotoxicity assay, we used the following cell lines: human glioblastoma cell line U118-MG, human mammary gland/breast cell line BT-20, human ovary adenocarcinoma cell line Caov-3, and non-small-cell lung carcinoma H-1299. As previously mentioned, these cell lines contain a high level of the TET1 protein, which corresponds to a lower overall survival. In addition to these cell cultures, we used the human dermal fibroblast cell line HF-P4 as a healthy control. Determination of cytotoxicity was performed using the MTT [3-(4,5-dimethylthiazol-2-yl)-2,5-diphenyltetrazolium bromide] colorimetric assay. Viable cells from each cell line were cultured in 96-well plates (VWR, Stříbrná Skalice, Czech Republic) at a density of 1.0 × 10^5 cells per well and allowed to grow for 24 h in 200 μL of recommended medium. After a 1-day incubation, the medium was replaced with solutions of compounds 1–6 at concentration ranges of 0.1–20 μM. Each concentration was measured four times within one test, and the entire test was repeated three times. Tested compounds 1–6 were dissolved in DMSO and then diluted with corresponding medium to a final volume of 200 μL (maximum 1% DMSO). After 48 h exposure, cells were treated with 175 μL of MTT solution (P-LAB, Prague, Czech Republic) for 2 h. In the next step, MTT solution was removed, and 125 μL of DMSO (Penta, Prague, Czech Republic) was added to solubilize dark crystals of formazan formed in intact cells, and absorbance was measured at 570 nm by the enzyme-linked immunoabsorbent assay reader Infinite® 200 PRO (Tecan, Männedorf, Switzerland). The final DMSO concentration was smaller than 1% (v/v). The absorbance of untreated cells was considered 100%, and IC50 values were calculated by the GraphPad Prism 8 software. As a parameter for cytotoxicity, we used a concentration that inhibits 50% of cell growth (IC50).

[2] = tested on: H-1299 cells; assay: MTT cytotoxicity assay, H-1299; assay type: cell-based, human; conditions: Homo sapiens
Protocol: as §1
(§3) A human glioblastoma cell line (U118-MG) and a human non-small-cell lung carcinoma cell line (H1299) were used for the cytotoxicity assay (MTT). Both cell lines were generously supplied by Dr. M. Masařik, PhD, Department of Pathological physiology, Masaryk University, Czech Republic. U118-MG cells were cultivated under standard conditions in Dulbecco’s modified Eagle’s medium (ATCC, Manassas, VA, USA) supplemented with 10% FBS and streptomycin (100 μg/mL) at 37 °C at a 5% CO2 atmosphere. H1299 cells were cultivated under standard conditions in RPMI 1640 (BioTech, Prague, Czech Republic) medium supplemented with 10% FBS and streptomycin (100 μg/mL) at 37 °C at a 5% CO2 atmosphere.
as §2

[3] = tested on: U-118 MG cells; assay: MTT cytotoxicity assay, U-118 MG; assay type: cell-based, human; conditions: 48 h
Protocol: as §1, §3, §2

Cc1ccc(-n2c(-c3ccc(C(=O)N/N=C/c4cc(F)ccc4O)cc3)cc3c2cc(-c2ccc(C(=O)N/N=C/c4cc(F)ccc4O)cc2)n3-c2ccc(C)cc2)cc1 [Compound 3]
Cell viability % ([1]; BT-20, 100 nM, 48 h, repeats, 0.1 µM): 73.86% and 70.55%
Cell viability % ([1]; BT-20, 500 nM, 48 h, repeats, 0.5 µM): 90.62% and 106.8284%
Cell viability % ([1]; BT-20, 750 nM, 48 h, repeats, 0.75 µM): 90.49% and 101.3318%
Cell viability % ([1]; BT-20, 1 uM, 48 h, repeats, 1 µM): 95.2857% and 94.7%
Cell viability % ([1]; BT-20, 2.5 uM, 48 h, repeats, 2.5 µM): 99.34% and 98.89%
Cell viability % ([1]; BT-20, 5 uM, 48 h, repeats, 5 µM): 91.79% and 101.4304%
Cell viability % ([1]; BT-20, 7.5 uM, 48 h, repeats, 7.5 µM): 71.93% and 72.16%
Cell viability % ([1]; BT-20, 10 uM, 48 h, repeats, 10 µM): 60.86% and 57.19%
Cell viability % ([1]; BT-20, 15 uM, 48 h, repeats, 15 µM): 53.94% and 48.1349%
Cell viability % ([1]; BT-20, 20 uM, 48 h, repeats, 20 µM): 33.39% and 29.51%
viability at 0.1 µM ([1]; Homo sapiens, BT-20, 48 h, BT-20, 100 nM, repeats, read-out: Cell viability %): 83.4%
viability at 0.5 µM ([1]; Homo sapiens, BT-20, 48 h, BT-20, 500 nM, repeats, read-out: Cell viability %): 95.3%
viability at 0.75 µM ([1]; Homo sapiens, BT-20, 48 h, BT-20, 750 nM, repeats, read-out: Cell viability %): 99.7%
viability at 1 µM ([1]; Homo sapiens, BT-20, 48 h, BT-20, 1 uM, repeats, read-out: Cell viability %): 104%
viability at 2.5 µM ([1]; Homo sapiens, BT-20, 48 h, BT-20, 2.5 uM, repeats, read-out: Cell viability %): 99.4%
viability at 5 µM ([1]; Homo sapiens, BT-20, 48 h, BT-20, 5 uM, repeats, read-out: Cell viability %): 85.1%
viability at 7.5 µM ([1]; Homo sapiens, BT-20, 48 h, BT-20, 7.5 uM, repeats, read-out: Cell viability %): 73.1%
viability at 10 µM ([1]; Homo sapiens, BT-20, 48 h, BT-20, 10 uM, repeats, read-out: Cell viability %): 62.9%
viability at 15 µM ([1]; Homo sapiens, BT-20, 48 h, BT-20, 15 uM, repeats, read-out: Cell viability %): 48.9%
viability at 20 µM ([1]; Homo sapiens, BT-20, 48 h, BT-20, 20 uM, repeats, read-out: Cell viability %): 41%
IC50 ([1]; Homo sapiens, BT-20, MTT, 48 h): 13.7 µM
viability at 2.5 µM ([2]; NCI-H1299, 48 h, H-1299, 2.5 uM, repeats, read-out: Cell viability %): 124%
viability at 5 µM ([2]; NCI-H1299, 48 h, H-1299, 5 uM, repeats, read-out: Cell viability %): 85.7%
viability at 10 µM ([2]; NCI-H1299, 48 h, H-1299, 10 uM, repeats, read-out: Cell viability %): 47.9%
viability at 15 µM ([2]; NCI-H1299, 48 h, H-1299, 15 uM, repeats, read-out: Cell viability %): 58.9%
viability at 20 µM ([2]; NCI-H1299, 48 h, H-1299, 20 uM, repeats, read-out: Cell viability %): 31.4%
IC50 ([2]; NCI-H1299, MTT, 48 h): 10.6 µM
melting point: 337 to 338 °C
viability at 0.1 µM ([3]; Homo sapiens, U-118-MG, U-118 MG, 100 nM, repeats, read-out: Cell viability %): 90.9%
viability at 0.75 µM ([3]; Homo sapiens, U-118-MG, U-118 MG, 750 nM, repeats, read-out: Cell viability %): 70.2%
viability at 1 µM ([3]; Homo sapiens, U-118-MG, U-118 MG, 1 uM, repeats, read-out: Cell viability %): 75.9%
viability at 2.5 µM ([3]; Homo sapiens, U-118-MG, U-118 MG, 2.5 uM, repeats, read-out: Cell viability %): 64.7%
viability at 5 µM ([3]; Homo sapiens, U-118-MG, U-118 MG, 5 uM, repeats, read-out: Cell viability %): 57.1%
viability at 7.5 µM ([3]; Homo sapiens, U-118-MG, U-118 MG, 7.5 uM, repeats, read-out: Cell viability %): 48.3%
viability at 10 µM ([3]; Homo sapiens, U-118-MG, U-118 MG, 10 uM, repeats, read-out: Cell viability %): 45.6%
viability at 15 µM ([3]; Homo sapiens, U-118-MG, U-118 MG, 15 uM, repeats, read-out: Cell viability %): 42.6%
viability at 20 µM ([3]; Homo sapiens, U-118-MG, U-118 MG, 20 uM, repeats, read-out: Cell viability %): 35.1%
IC50 ([3]; Homo sapiens, U-118-MG, MTT): 19.5 µM
Cell viability % ([3]; U-118 MG, 100 nM, repeats, 0.1 µM): 99.65% and 109.711%
Cell viability % ([3]; U-118 MG, 500 nM, repeats, 0.5 µM): 87.97% and 59.47% and 56.29%
Cell viability % ([3]; U-118 MG, 750 nM, repeats, 0.75 µM): 72.44% and 70.85%
Cell viability % ([3]; U-118 MG, 1 uM, repeats): 71.04% and 66.44%
Cell viability % ([3]; U-118 MG, 2.5 uM, repeats): 61.47% and 71.58%
Cell viability % ([3]; U-118 MG, 5 uM, repeats): 68.44% and 68.48%
Cell viability % ([3]; U-118 MG, 7.5 uM, repeats): 52.95% and 55.16%
Cell viability % ([3]; U-118 MG, 10 uM, repeats): 53.29% and 53%
Cell viability % ([3]; U-118 MG, 15 uM, repeats): 46.07% and 47.09%
Cell viability % ([3]; U-118 MG, 20 uM, repeats): 30.47% and 32.82%

From article PMC9505425, “Targeting of the Mitochondrial TET1 Protein by Pyrrolo[3,2-b]pyrrole Chelators” (International Journal of Molecular Sciences, 2022)
